From US7494998B2, “Benzisoxazole piperazine compounds and methods of use thereof” (Hypnion, Inc., priority 2005, dated 2009)

Legend:
male Wistar rats = assay: Sleep-wakefulness monitoring (EEG/EMG, SCORE-2004) in rats after oral treatment at CT-18; format: in vivo, rat; settings: for MAXIMUM NREM SLEEP CUMULATION 10 mg/kg / LONGEST UNINTERRUPTED SLEEP BOUT 10 mg/kg: 10 mg/kg oral at CT-18; for MAXIMUM NREM SLEEP CUMULATION 3 mg/kg / LONGEST UNINTERRUPTED SLEEP BOUT 3 mg/kg: 3 mg/kg oral at CT-18; for MAXIMUM NREM SLEEP CUMULATION 30 mg/kg / LONGEST UNINTERRUPTED SLEEP BOUT 30 mg/kg: 30 mg/kg oral at CT-18
Protocol: Sleep-wakefulness, locomotor activity and body temperature are monitored in male Wistar rats treated with a test compound (i.e., benzisoxazole analog) initially at a concentration of 10 mg/kg. Higher and lower doses are assayed for select compounds (e.g., as high as 45 mg/kg, and as low as necessary to establish a no-effect dose). Treatments are administered at CT-18, the peak of the activity dominated period (6 hours after lights-off), and produced soporific (sleep-inducing) effects characterized by increased non-REM sleep time, increased sleep continuity, but without evidence of REM sleep inhibition or rebound insomnia.
Sleep-wakefulness, locomotor activity and body temperature were monitored in vivo with various compounds of the invention. Adult, male Wistar rats (250 g at time of surgery, Charles River Laboratories, Wilmington Mass.) were anesthetized (2% isoflourane in medical grade oxygen) and surgically prepared with a cranial implant to permit chronic electro-encephalogram (EEG) and electromyogram (EMG) recording. Body temperature and locomotor activity were monitored via a miniature transmitter (Mini-Mitter, Bend, Oreg.) surgically placed in the abdomen. The cranial implant consisted of stainless steel screws (two frontal [+3.2 AP from bregma, ±2.0 ML] and two occipital [−6.9 AP, ±5.5 ML]) for EEG recording. Two Teflon®-coated stainless steel wires were positioned under the nuchal trapezoid muscles for EMG recording. All leads were soldered to a miniature connector prior to surgery, and gas sterilized in ethylene oxide. The implant assembly was affixed to the skull with dental acrylic. A minimum of three weeks was allowed for surgical recovery.
Each rat was permanently housed in its own individual recording cage located within separate, ventilated compartments of custom-designed stainless steel cabinets. Each cage was enhanced with a filter-top riser and low-torque swivel-commutator. Food and water were available ad libitum. A 24-hr light-dark cycle (12 hours light, 12 hours dark) was maintained throughout the study. Animals were undisturbed for at least 48 hours before and after treatments.
Sleep and wakefulness were determined using “SCORE-2004™” (Hypnion, Worcester, Mass.)—an internet-based sleep-wake and physiological monitoring system. The system monitored amplified EEG (bandpass 1-30 Hz), integrated EMG (bandpass 10-100 Hz), body temperature and non-specific locomotor activity (LMA) via telemetry, and drinking activity, continuously and simultaneously. Arousal states were classified on-line as non-REM (NREM) sleep, REM sleep, wake, or theta-dominated wake every 10 seconds. Total drinking and locomotor activity counts, and body temperature were quantitiated and recorded each minute, using EEG feature extraction and pattern-matching algorithms. […] The classification algorithm used individually-taught EEG-arousal-state templates, plus EMG criteria to differentiate REM sleep from theta-dominated wakefulness, plus behavior-dependent contextual rules (e.g., if the animal was drinking, it is awake). Drinking and locomotor activity intensity (LMA) were recorded every 10 seconds, while body temperature was recorded each minute. Locomotor activity was detected by a telemetry receiver (Mini-Mitter) beneath the cage. Telemetry measures (LMA and body temperature) were not part of the scoring algorithm; thus, sleep-scoring and telemetry data were independent measures.
Compounds were administered at CT-18, the peak of the activity-dominated period, sufficient time was allowed to view the time course of the treatment effect before lights-on (6 hours post-treatment). Compounds were suspended in sterile 0.25% or 0.5% methylcellulose (1-2 ml/kg). Treatments were administered orally as a bolus.
A parallel group study design was employed. […]

[1] = biological target: T1, human recombinant M1 expressed in CHO cells (Homo sapiens, UniProt P11229); settings: reference compounds of the M1 assay; read-out: Ki (M1 binding assay, reference compounds); cited from earlier work
T1 construct: expressed in transfected cells; host or cells: CHO cells
T1 sequence (P11229 1-460): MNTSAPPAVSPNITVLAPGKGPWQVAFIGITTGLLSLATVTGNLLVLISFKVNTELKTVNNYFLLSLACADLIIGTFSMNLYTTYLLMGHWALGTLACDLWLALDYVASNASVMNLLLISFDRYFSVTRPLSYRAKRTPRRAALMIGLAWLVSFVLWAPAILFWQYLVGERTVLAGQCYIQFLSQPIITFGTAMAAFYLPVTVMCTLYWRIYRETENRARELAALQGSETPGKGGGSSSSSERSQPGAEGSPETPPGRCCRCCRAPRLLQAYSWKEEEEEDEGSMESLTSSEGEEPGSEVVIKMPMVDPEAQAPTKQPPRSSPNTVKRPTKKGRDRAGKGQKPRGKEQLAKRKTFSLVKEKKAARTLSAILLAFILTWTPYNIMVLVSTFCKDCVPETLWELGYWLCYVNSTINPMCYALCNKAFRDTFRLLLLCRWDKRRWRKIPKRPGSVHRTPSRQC

[2] = cumulative nonREM sleep defined in minutes, in min
[3] = sleep bout length defined in minutes

COc1ccc2onc(N3CCN(CC(C)(C)C(=O)O)CC3)c2c1 [Compound 7]
MAXIMUM NREM SLEEP CUMULATION 10 mg/kg (male Wistar rats; [2]): 6 | LONGEST UNINTERRUPTED SLEEP BOUT 10 mg/kg (male Wistar rats; [3]): −2.5

CC(C)(CN1CCN(c2noc3ccccc23)CC1)C(=O)O [Compound 1]
MAXIMUM NREM SLEEP CUMULATION 1 mg/kg (male Wistar rats; 1 mg/kg oral at CT-18, cumulative nonREM sleep defined in minutes, in min): 20 | LONGEST UNINTERRUPTED SLEEP BOUT 1 mg/kg (male Wistar rats; 1 mg/kg oral at CT-18, sleep bout length defined in minutes): 6.0 | MAXIMUM NREM SLEEP CUMULATION 3 mg/kg (male Wistar rats; [2]): 16 | LONGEST UNINTERRUPTED SLEEP BOUT 3 mg/kg (male Wistar rats; [3]): 9.3 | MAXIMUM NREM SLEEP CUMULATION 10 mg/kg (male Wistar rats; [2]): 26 | LONGEST UNINTERRUPTED SLEEP BOUT 10 mg/kg (male Wistar rats; [3]): 14.4 | MAXIMUM NREM SLEEP CUMULATION 30 mg/kg (male Wistar rats; [2]): 50 | LONGEST UNINTERRUPTED SLEEP BOUT 30 mg/kg (male Wistar rats; [3]): 16.2

CC(C)(CN1CCN(c2noc3ccccc23)CC1)C(=O)NS(C)(=O)=O [Compound 3]
MAXIMUM NREM SLEEP CUMULATION 10 mg/kg (male Wistar rats; [2]): 25 | LONGEST UNINTERRUPTED SLEEP BOUT 10 mg/kg (male Wistar rats; [3]): 5.2 | MAXIMUM NREM SLEEP CUMULATION 30 mg/kg (male Wistar rats; [2]): 27 | LONGEST UNINTERRUPTED SLEEP BOUT 30 mg/kg (male Wistar rats; [3]): 12.3

Cc1ccc2onc(N3CCN(CCC(=O)O)CC3)c2c1 [Compound 12]
MAXIMUM NREM SLEEP CUMULATION 10 mg/kg (male Wistar rats; [2]): 16 | LONGEST UNINTERRUPTED SLEEP BOUT 10 mg/kg (male Wistar rats; [3]): 7.3

CC(C)(CN1CCN(c2noc3ccc(F)cc23)CC1)C(=O)O [Compound 6]
MAXIMUM NREM SLEEP CUMULATION 10 mg/kg (male Wistar rats; [2]): 18 | LONGEST UNINTERRUPTED SLEEP BOUT 10 mg/kg (male Wistar rats; [3]): 9.8 | MAXIMUM NREM SLEEP CUMULATION 30 mg/kg (male Wistar rats; [2]): 26 | LONGEST UNINTERRUPTED SLEEP BOUT 30 mg/kg (male Wistar rats; [3]): 13.5

O=C(O)CCN1CCN(c2noc3ccccc23)CC1 [Compound 4]
MAXIMUM NREM SLEEP CUMULATION 10 mg/kg (male Wistar rats; [2]): 27 | LONGEST UNINTERRUPTED SLEEP BOUT 10 mg/kg (male Wistar rats; [3]): 9.9

O=C(O)C1(CN2CCN(c3noc4ccccc34)CC2)CC1 [Compound 5]
MAXIMUM NREM SLEEP CUMULATION 3 mg/kg (male Wistar rats; [2]): 40 | LONGEST UNINTERRUPTED SLEEP BOUT 3 mg/kg (male Wistar rats; [3]): 3.0 | MAXIMUM NREM SLEEP CUMULATION 10 mg/kg (male Wistar rats; [2]): 37 | LONGEST UNINTERRUPTED SLEEP BOUT 10 mg/kg (male Wistar rats; [3]): 5.1 | MAXIMUM NREM SLEEP CUMULATION 30 mg/kg (male Wistar rats; [2]): 45 | LONGEST UNINTERRUPTED SLEEP BOUT 30 mg/kg (male Wistar rats; [3]): 7.2

O=C(O)CCCN1CCN(c2noc3ccccc23)CC1 [Compound 10]
MAXIMUM NREM SLEEP CUMULATION 10 mg/kg (male Wistar rats; [2]): 22 | LONGEST UNINTERRUPTED SLEEP BOUT 10 mg/kg (male Wistar rats; [3]): 10.7 | MAXIMUM NREM SLEEP CUMULATION 30 mg/kg (male Wistar rats; [2]): 24 | LONGEST UNINTERRUPTED SLEEP BOUT 30 mg/kg (male Wistar rats; [3]): 9.9

Cc1ccc2c(N3CCN(CC(C)(C)C(=O)O)CC3)noc2c1 [Compound 9]
MAXIMUM NREM SLEEP CUMULATION 3 mg/kg (male Wistar rats; [2]): 24 | LONGEST UNINTERRUPTED SLEEP BOUT 3 mg/kg (male Wistar rats; [3]): 13.6 | MAXIMUM NREM SLEEP CUMULATION 10 mg/kg (male Wistar rats; [2]): 29 | LONGEST UNINTERRUPTED SLEEP BOUT 10 mg/kg (male Wistar rats; [3]): 12.9

Cc1ccc2onc(N3CCN(CC(C)(C)C(=O)O)CC3)c2c1 [Compound 8]
MAXIMUM NREM SLEEP CUMULATION 3 mg/kg (male Wistar rats; [2]): 15 | LONGEST UNINTERRUPTED SLEEP BOUT 3 mg/kg (male Wistar rats; [3]): 4.8 | MAXIMUM NREM SLEEP CUMULATION 10 mg/kg (male Wistar rats; [2]): 29 | LONGEST UNINTERRUPTED SLEEP BOUT 10 mg/kg (male Wistar rats; [3]): 8.6 | MAXIMUM NREM SLEEP CUMULATION 30 mg/kg (male Wistar rats; [2]): 37 | LONGEST UNINTERRUPTED SLEEP BOUT 30 mg/kg (male Wistar rats; [3]): 14.3

Cc1ccc2onc(N3CCN(CCCC(=O)O)CC3)c2c1 [Compound 13]
MAXIMUM NREM SLEEP CUMULATION 10 mg/kg (male Wistar rats; [2]): 7 | LONGEST UNINTERRUPTED SLEEP BOUT 10 mg/kg (male Wistar rats; [3]): −5.6

C[N+]1(C)CCC(OC(=O)C(c2ccccc2)c2ccccc2)CC1 [4-DAMP methiodide]
Ki [1]: 0.27 nM
